Measurements from ChEMBL document CHEMBL4138181, “Synthesis, molecular docking, and QSAR study of sulfonamide-based indoles as aromatase inhibitors” (Eur J Med Chem, 2018).

What was measured:
Aromatase [1] = target: T1, Aromatase (Homo sapiens, UniProt P11511); experiment: Inhibition of aromatase (unknown origin) using O-benzyl fluorescein benzyl ester as substrate in presence of NADPH-generating system by fluorescence assay
T1 sequence (P11511 whole entry): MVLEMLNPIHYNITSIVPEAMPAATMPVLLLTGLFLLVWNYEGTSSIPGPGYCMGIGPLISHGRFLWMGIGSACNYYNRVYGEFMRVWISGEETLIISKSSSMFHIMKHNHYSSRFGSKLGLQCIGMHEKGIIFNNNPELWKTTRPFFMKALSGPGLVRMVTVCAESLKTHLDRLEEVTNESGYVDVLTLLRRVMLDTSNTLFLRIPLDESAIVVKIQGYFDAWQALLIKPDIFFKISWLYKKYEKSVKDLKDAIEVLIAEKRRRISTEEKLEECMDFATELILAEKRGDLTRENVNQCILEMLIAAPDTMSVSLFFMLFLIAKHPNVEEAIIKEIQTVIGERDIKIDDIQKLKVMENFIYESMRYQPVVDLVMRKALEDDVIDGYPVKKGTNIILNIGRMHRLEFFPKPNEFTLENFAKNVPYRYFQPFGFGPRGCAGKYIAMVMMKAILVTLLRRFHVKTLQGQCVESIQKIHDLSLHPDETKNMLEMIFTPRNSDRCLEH

Vero = experiment: Cytotoxicity against GFP-expressing African green monkey Vero cells after 4 days by fluorescence assay; format: cell-based; conditions: Chlorocebus sabaeus, 96 h
aromatase [2] = experiment: Selectivity index, ratio of IC50 for GFP-expressing African green monkey Vero cells to IC50 for aromatase (unknown origin); format: toxicity; conditions: read-out: Ratio IC50

Row | SMILES | IC50 (Aromatase [1]) [µM] | IC50 (Vero) | selectivity ratio (aromatase [2])
1 | O=S(=O)(NCCc1c(C(c2ccc(F)cc2)c2[nH]c3ccccc3c2CCNS(=O)(=O)c2ccc(Cl)cc2)[nH]c2ccccc12)c1ccc(Cl)cc1 | 5.4 | > 50 µg/mL | > 11.9
2 | O=S(=O)(NCCc1c(C(c2ccc(C(F)(F)F)cc2)c2[nH]c3ccccc3c2CCNS(=O)(=O)c2ccc(Br)cc2)[nH]c2ccccc12)c1ccc(Br)cc1 | 3.8 | > 50 µg/mL | > 14.4
3 | O=[N+]([O-])c1ccc(C(c2[nH]c3ccccc3c2CCNS(=O)(=O)c2ccc(C(F)(F)F)cc2)c2[nH]c3ccccc3c2CCNS(=O)(=O)c2ccc(C(F)(F)F)cc2)cc1 | 4 | > 50 µg/mL | > 14.4
4 | COc1ccc(S(=O)(=O)NCCc2c(C3(c4[nH]c5ccccc5c4CCNS(=O)(=O)c4ccc(OC)cc4)C(=O)Nc4ccccc43)[nH]c3ccccc23)cc1 | 2.8 | > 50 µg/mL | > 22.6
5 | O=S(=O)(NCCc1c(C(c2ccc(Br)cc2)c2[nH]c3ccccc3c2CCNS(=O)(=O)c2ccc(C(F)(F)F)cc2)[nH]c2ccccc12)c1ccc(C(F)(F)F)cc1 | 3.4 | 24.8 µM | 7.3
6 | COc1ccc(S(=O)(=O)NCCc2c(C(c3ccccc3O)c3[nH]c4ccccc4c3CCNS(=O)(=O)c3ccc(OC)cc3)[nH]c3ccccc23)cc1 | 0.8 | > 50 µg/mL | > 81.7
7 | Cc1ccc(S(=O)(=O)NCCc2c(C(c3ccccc3O)c3[nH]c4ccccc4c3CCNS(=O)(=O)c3ccc(C)cc3)[nH]c3ccccc23)cc1 | 4.1 | 14.8 µM | 3.6
8 | O=[N+]([O-])c1cccc(S(=O)(=O)NCCc2c(C(c3ccc(O)cc3)c3[nH]c4ccccc4c3CCNS(=O)(=O)c3cccc([N+](=O)[O-])c3)[nH]c3ccccc23)c1 | 2.3 | > 50 µg/mL | > 27.4
9 | O=S(=O)(NCCc1c(C(c2ccc3c(c2)Cc2ccccc2-3)c2[nH]c3ccccc3c2CCNS(=O)(=O)c2ccc(Cl)cc2)[nH]c2ccccc12)c1ccc(Cl)cc1 | 8.8 | > 50 µg/mL | > 6.72
10 | O=S(=O)(NCCc1c(C(c2ccc(C(F)(F)F)cc2)c2[nH]c3ccccc3c2CCNS(=O)(=O)c2ccc(Cl)cc2)[nH]c2ccccc12)c1ccc(Cl)cc1 | 3.2 | 16.2 µM | 5.06
11 | O=[N+]([O-])c1ccc(C(c2[nH]c3ccccc3c2CCNS(=O)(=O)c2ccc(F)cc2)c2[nH]c3ccccc3c2CCNS(=O)(=O)c2ccc(F)cc2)cc1 | 3.5 | > 50 µg/mL | > 18.6
12 | COc1ccc(S(=O)(=O)NCCc2c(C(c3ccccc3)c3[nH]c4ccccc4c3CCNS(=O)(=O)c3ccc(OC)cc3)[nH]c3ccccc23)cc1 | 3.5 | > 50 µg/mL | > 19.1
13 | O=S(=O)(NCCc1c(C(c2ccc(O)cc2)c2[nH]c3ccccc3c2CCNS(=O)(=O)c2ccc(Cl)cc2)[nH]c2ccccc12)c1ccc(Cl)cc1 | 1.4 | 15 µM | 10.7
14 | O=[N+]([O-])c1ccccc1S(=O)(=O)NCCc1c(C(c2ccccc2O)c2[nH]c3ccccc3c2CCNS(=O)(=O)c2ccccc2[N+](=O)[O-])[nH]c2ccccc12 | 4.6 | > 50 µg/mL | > 13.7
15 | O=C1Nc2ccccc2C1(c1[nH]c2ccccc2c1CCNS(=O)(=O)c1ccc(Cl)cc1)c1[nH]c2ccccc2c1CCNS(=O)(=O)c1ccc(Cl)cc1 | 8.3 | > 50 µg/mL | > 7.54
16 | O=S(=O)(NCCc1c(C(c2ccc(F)cc2)c2[nH]c3ccccc3c2CCNS(=O)(=O)c2ccc(C(F)(F)F)cc2)[nH]c2ccccc12)c1ccc(C(F)(F)F)cc1 | 4.4 | 15.1 µM | 3.42
17 | N#Cc1ccc(C(c2[nH]c3ccccc3c2CCNS(=O)(=O)c2ccc(Cl)cc2)c2[nH]c3ccccc3c2CCNS(=O)(=O)c2ccc(Cl)cc2)cc1 | 5.5 | > 50 µg/mL | > 11.6
18 | N#Cc1ccc(C(c2[nH]c3ccccc3c2CCNS(=O)(=O)c2ccc(F)cc2)c2[nH]c3ccccc3c2CCNS(=O)(=O)c2ccc(F)cc2)cc1 | 9.8 | > 50 µg/mL | > 6.8

Row | SMILES | IC50 (Aromatase [1]) [µM] | IC50 (Vero) | selectivity ratio (aromatase [2])
19 | O=C1Nc2ccccc2C1(c1[nH]c2ccccc2c1CCNS(=O)(=O)c1ccccc1[N+](=O)[O-])c1[nH]c2ccccc2c1CCNS(=O)(=O)c1ccccc1[N+](=O)[O-] | 9.8 | > 50 µg/mL | > 6.22
20 | O=S(=O)(NCCc1c(C(c2ccc(F)cc2)c2[nH]c3ccccc3c2CCNS(=O)(=O)c2ccc(Br)cc2)[nH]c2ccccc12)c1ccc(Br)cc1 | 7.6 | > 50 µg/mL | > 7.61
21 | O=S(=O)(NCCc1c(C(c2ccccc2O)c2[nH]c3ccccc3c2CCNS(=O)(=O)c2ccc(Cl)cc2)[nH]c2ccccc12)c1ccc(Cl)cc1 | 4.2 | > 50 µg/mL | > 15.4
22 | CCn1c2ccccc2c2ccc(C(c3[nH]c4ccccc4c3CCNS(=O)(=O)c3ccc(Cl)cc3)c3[nH]c4ccccc4c3CCNS(=O)(=O)c3ccc(Cl)cc3)cc21 | 3.9 | > 50 µg/mL | > 14.7
23 | Cc1ccc(S(=O)(=O)NCCc2c(C(c3ccccc3)c3[nH]c4ccccc4c3CCNS(=O)(=O)c3ccc(C)cc3)[nH]c3ccccc23)cc1 | 11.9 | > 50 µg/mL | > 5.86
24 | O=S(=O)(NCCc1c(C(c2ccc(O)cc2)c2[nH]c3ccccc3c2CCNS(=O)(=O)c2ccc(C(F)(F)F)cc2)[nH]c2ccccc12)c1ccc(C(F)(F)F)cc1 | 1.3 | 13.3 µM | 10.2
25 | O=S(=O)(NCCc1c(C(c2ccc(Br)cc2)c2[nH]c3ccccc3c2CCNS(=O)(=O)c2ccc(Cl)cc2)[nH]c2ccccc12)c1ccc(Cl)cc1 | 2.7 | 44.9 µM | 16.6
26 | O=[N+]([O-])c1ccc(S(=O)(=O)NCCc2c(C(c3ccccc3O)c3[nH]c4ccccc4c3CCNS(=O)(=O)c3ccc([N+](=O)[O-])cc3)[nH]c3ccccc23)cc1 | 2.8 | > 50 µg/mL | > 22.5
27 | O=[N+]([O-])c1ccc(S(=O)(=O)NCCc2c(C(c3ccccc3)c3[nH]c4ccccc4c3CCNS(=O)(=O)c3ccc([N+](=O)[O-])cc3)[nH]c3ccccc23)cc1 | 11.2 | > 50 µg/mL | > 5.73
28 | COc1ccc(S(=O)(=O)NCCc2c(C(c3cc(OC)c(O)c(OC)c3)c3[nH]c4ccccc4c3CCNS(=O)(=O)c3ccc(OC)cc3)[nH]c3ccccc23)cc1 | 2.5 | > 50 µg/mL | > 24.2
29 | COc1ccc(S(=O)(=O)NCCc2c(C(c3ccc(O)cc3)c3[nH]c4ccccc4c3CCNS(=O)(=O)c3ccc(OC)cc3)[nH]c3ccccc23)cc1 | 0.7 | > 50 µg/mL | > 93.4
30 | O=S(=O)(NCCc1c(C(c2ccc(C(F)(F)F)cc2)c2[nH]c3ccccc3c2CCNS(=O)(=O)c2ccc(C(F)(F)F)cc2)[nH]c2ccccc12)c1ccc(C(F)(F)F)cc1 | 2.3 | > 50 µg/mL | > 24.4
31 | O=[N+]([O-])c1ccc(C(c2[nH]c3ccccc3c2CCNS(=O)(=O)c2ccc(Br)cc2)c2[nH]c3ccccc3c2CCNS(=O)(=O)c2ccc(Br)cc2)cc1 | 2.7 | > 50 µg/mL | > 20.8
32 | O=C1Nc2ccccc2C1(c1[nH]c2ccccc2c1CCNS(=O)(=O)c1cccc([N+](=O)[O-])c1)c1[nH]c2ccccc2c1CCNS(=O)(=O)c1cccc([N+](=O)[O-])c1 | 11.9 | > 50 µg/mL | > 5.13
33 | N#Cc1ccc(C(c2[nH]c3ccccc3c2CCNS(=O)(=O)c2ccc(C(F)(F)F)cc2)c2[nH]c3ccccc3c2CCNS(=O)(=O)c2ccc(C(F)(F)F)cc2)cc1 | 15.3 | > 50 µg/mL | > 3.85
34 | O=[N+]([O-])c1cccc(S(=O)(=O)NCCc2c(C(c3ccccc3O)c3[nH]c4ccccc4c3CCNS(=O)(=O)c3cccc([N+](=O)[O-])c3)[nH]c3ccccc23)c1 | 1.7 | > 50 µg/mL | > 37
35 | Cc1c2ccncc2c(C)c2c1[nH]c1ccccc12 [ELLIPTECINE] |  | 1.94 µM | 
